Data on three compounds can be found in ChEMBL document CHEMBL4251650, “Design and synthesis of 2-(4,5,6,7-tetrahydrothienopyridin-2-yl)-benzoimidazole carboxamides as novel orally efficacious Poly(ADP-ribose)polymerase (PARP) inhibitors” (Eur J Med Chem, 2018).

SMILES strings stand for the structures.

One may read the solubility as the dissolved amount per volume that the medium holds. Low values mean a poorly soluble substance, high ones a readily soluble substance. By bioavailability is commonly meant dose-corrected exposure relative to a reference, in per cent. The term half-life denotes the time in which the quantity being followed falls by half. Low readings indicate rapid decline, high ones slow decline. Usually clearance stands for the volume of plasma or blood freed of the substance per unit of time. Low values mean a low capacity for elimination, high ones a high capacity for elimination. The term AUC(0-inf) denotes the area under the concentration-time curve extrapolated to infinity. As a reminder, the Cmax is the maximum level reached in the sampled fluid or tissue. One may read the Tmax as the time from dosing to the highest level.

Data set [1] is described as follows: Permeability across apical to basolateral side in human Caco2 cells. Conditions: Caco-2, read-out: permeability. The class given is ADME, cell-based. On the technique in general: Caco-2 monolayers are a common model of the intestinal barrier.
Data set [2] in a line: Intrinsic clearance in human liver microsomes. The class given is ADME, microsome. The note with it: read-out: CLH.
A short description of data set [3]: Solubility of the compound in pH 7 solution. Type of data set: physicochemical.
A short description of data set [4]: Solubility of the compound in pH 6.8 solution. The class given is physicochemical.
The nature of data set [5]: Solubility of the compound in pH 7.4 solution. Type of data set: physicochemical.
Data set [6] can be described thus: Intrinsic clearance in rat liver microsomes. The class given is ADME, microsome. The note with it: read-out: CLH.
Data set [7] is described as follows: Intrinsic clearance in mouse liver microsomes. Conditions: read-out: CLH. The class given is ADME, microsome. (Liver microsomes are a subcellular fraction often used to study metabolism.)
A short description of data set [8]: Oral bioavailability in Sprague-Dawley rat at 10 mg/kg administered as single dose by LC-MS/MS analysis. The class given is ADME, organism-based. Conditions: in vivo.
A short description of data set [9]: Half life in Sprague-Dawley rat at 5 mg/kg, iv administered as single dose by LC-MS/MS analysis. Type of data set: ADME, organism-based. Conditions: in vivo.
A short description of data set [10]: Clearance in Sprague-Dawley rat at 5 mg/kg, iv administered as single dose by LC-MS/MS analysis. Type of data set: ADME, organism-based. The note with it: in vivo.
Data set [11] is described as follows: Volume of distribution at steady state in Sprague-Dawley rat at 5 mg/kg, iv administered as single dose by LC-MS/MS analysis. The class given is ADME, organism-based. Conditions: in vivo, read-out: Vdss.
Data set [12] in a line: AUC (0 to infinity) in Sprague-Dawley rat at 10 mg/kg, po administered as single dose by LC-MS/MS analysis. Type of data set: ADME, organism-based. The note with it: in vivo. On the set-up: dose 10 mg/kg, time infinity, route oral.
Data set [13] can be described thus: Cmax in Sprague-Dawley rat at 10 mg/kg, po administered as single dose by LC-MS/MS analysis. The class given is ADME, organism-based. On the set-up: dose 10 mg/kg, route oral. The note with it: in vivo.
Data set [14] is described as follows: Tmax in Sprague-Dawley rat at 10 mg/kg, po administered as single dose by LC-MS/MS analysis. The class given is ADME, organism-based. Conditions: in vivo.

Take `Cn1c(-c2cc3c(s2)CNCC3)nc2c(C(N)=O)cc(F)cc21`: in data set [1], the Papp A→B stood at 2.65 ×10⁻⁶ cm/s. The microsomal CLint in data set [2] turned out to be 28 µL/min/mg; in [6], 196 µL/min/mg; in [7], 75 µL/min/mg. Besides, the solubility in data set [3], in data set [4] and in [5] was > 50 µM throughout.

Regarding `NC(=O)c1cc(F)cc2[nH]c(-c3cc4c(s3)CNCC4)nc12`, the Papp A→B in data set [1] was 0.2 ×10⁻⁶ cm/s. The values for the microsomal CLint in data set [2], in data set [6] and in [7] were 23 µL/min/mg, 340 µL/min/mg and 123 µL/min/mg, respectively. The solubility in [3], in data set [4] and in data set [5] was > 50 µM throughout.

`Cl.Cn1c(-c2cc3c(s2)CNCC3)nc2c(C(N)=O)cc(F)cc21` gave a bioavailability in data set [8] of 26%. This compound also showed a half-life in data set [9] of 0.89 h. Moreover, the clearance in [10] was 194 mL/min/kg. The Vd in data set [11] came out at 13.2 L/kg. In addition, the area under the curve AUC(0-inf) in data set [12] is 245 ng·h/mL. This compound returned a maximum concentration (Cmax) in data set [13] of 61.2 ng/mL. Moreover, in data set [14], the time of peak concentration (Tmax) amounted to 2.25 h.
